# In PMC5740381 (Antimicrobial Agents and Chemotherapy, 2017):
# Read-outs that look alike come from different tables or passages of the source.
# Experiments:
# [1] = biological target: T1, 1a D168V (Hepatitis C virus (isolate H77), UniProt P27958, D1194V); assay: Luciferase assay of HCV replication in transient-transfection replicons with wild-type or substituted NS3 (at least 3 transfections).; format: cell-based, Huh-7; conditions: SD, n = 3
# T1 construct: in transient replicon
# Experimental: (§1) Mutagenesis was performed using a Change-IT multiple-mutation site-directed mutagenesis kit (USB, Cleveland, OH) or by cloning a synthesized DNA fragment encoding the amino acid substitution(s). The genotype 1a and 1b replicon shuttle vectors used for the introduction of the substitutions of interest in the NS3, NS5A, or NS5B gene for transient-transfection assays have been described previously ([28], [33]). The replicon shuttle vectors used for the introduction of substitutions in NS3 genes from other genotypes were similar to the stable replicon cell line constructs described above, except for the absence of the neo gene. After mutagenesis, the plasmids were linearized and RNA was transcribed and then used to transfect Huh-7 cells. Inhibition of HCV replication by the HCV inhibitors was measured by luciferase assay, as described above. Replication efficiency was calculated as a percentage of wild-type replication, as described previously ([28]).
# [2] = biological target: T2, 1b D168E (Hepatitis C virus (isolate Con1), UniProt Q9WMX2, D1194E); assay: as above; format: cell-based, Huh-7; conditions: SD, n = 3
# T2 construct: in transient replicon
# Experimental: as §1
# [3] = biological target: T3, 1b V55A (Hepatitis C virus (isolate Con1), UniProt Q9WMX2, V1081A); assay: as above; format: cell-based, Huh-7; conditions: SD, n = 3
# T3 construct: in transient replicon
# Experimental: as §1
# [4] = biological target: T4, 2a D168E (Hepatitis C virus JFH-1, UniProt Q99IB8, D1198E); assay: as above; format: cell-based, Huh-7; conditions: SD, n = 3
# T4 construct: in transient replicon
# Experimental: as §1
# [5] = biological target: T5, 1b D168V (Hepatitis C virus (isolate Con1), UniProt Q9WMX2, D1194V); assay: as above; format: cell-based, Huh-7; conditions: SD, n = 3
# T5 construct: in transient replicon
# Experimental: as §1
# [6] = biological target: T6, 1a D168A (Hepatitis C virus (isolate H77), UniProt P27958, D1194A); assay: as above; format: cell-based, Huh-7; conditions: SD, n = 3
# T6 construct: in transient replicon
# Experimental: as §1
# [7] = biological target: T7, 1b A156T (Hepatitis C virus (isolate Con1), UniProt Q9WMX2, A1182T); assay: as above; format: cell-based, Huh-7; conditions: SD, n = 3
# T7 construct: in transient replicon
# Experimental: as §1
# [8] = biological target: T8, 1a V36M (Hepatitis C virus (isolate H77), UniProt P27958, V1062M); assay: as above; format: cell-based, Huh-7; conditions: SD, n = 3
# T8 construct: in transient replicon
# Experimental: as §1
# [9] = biological target: T9, 1a D168E (Hepatitis C virus (isolate H77), UniProt P27958, D1194E); assay: as above; format: cell-based, Huh-7; conditions: SD, n = 3
# T9 construct: in transient replicon
# Experimental: as §1
# [10] = biological target: T10, 1b T54A (Hepatitis C virus (isolate Con1), UniProt Q9WMX2, T1080A); assay: as above; format: cell-based, Huh-7; conditions: SD, n = 3
# T10 construct: in transient replicon
# Experimental: as §1
# [11] = biological target: T11, 1b D168A (Hepatitis C virus (isolate Con1), UniProt Q9WMX2, D1194A); assay: as above; format: cell-based, Huh-7; conditions: SD, n = 3
# T11 construct: in transient replicon
# Experimental: as §1
# [12] = biological target: T12, 2a D168A (Hepatitis C virus JFH-1, UniProt Q99IB8, D1198A); assay: as above; format: cell-based, Huh-7; conditions: SD, n = 3
# T12 construct: in transient replicon
# Experimental: as §1
# [13] = biological target: T13, 1a A156T (Hepatitis C virus (isolate H77), UniProt P27958, A1182T); assay: as above; format: cell-based, Huh-7; conditions: SD, n = 3
# T13 construct: in transient replicon
# Experimental: as §1
# [14] = biological target: T14, 1a F43L (Hepatitis C virus (isolate H77), UniProt P27958, F1069L); assay: as above; format: cell-based, Huh-7; conditions: SD, n = 3
# T14 construct: in transient replicon
# Experimental: as §1
# [15] = biological target: T15, 1a T54S (Hepatitis C virus (isolate H77), UniProt P27958, T1080S); assay: as above; format: cell-based, Huh-7; conditions: SD, n = 3
# T15 construct: in transient replicon
# Experimental: as §1
# [16] = biological target: T16, 5a D168E (Hepatitis C virus SA13, UniProt O91936, D1195E); assay: as above; format: cell-based, Huh-7; conditions: SD, n = 3
# T16 construct: in genotype 2a JFH-1 chimeric transient replicon
# Experimental: as §1
# [17] = biological target: T17, 2a A156V (Hepatitis C virus JFH-1, UniProt Q99IB8, A1186V); assay: as above; format: cell-based, Huh-7; conditions: SD, n = 3
# T17 construct: in transient replicon
# Experimental: as §1
# [18] = biological target: T18, 1a R155K (Hepatitis C virus (isolate H77), UniProt P27958, R1181K); assay: as above; format: cell-based, Huh-7; conditions: SD, n = 3
# T18 construct: in transient replicon
# Experimental: as §1
# [19] = biological target: T19, 2a A156T (Hepatitis C virus JFH-1, UniProt Q99IB8, A1186T); assay: as above; format: cell-based, Huh-7; conditions: SD, n = 3
# T19 construct: in transient replicon
# Experimental: as §1
# [20] = biological target: T20, 1b V170A (Hepatitis C virus (isolate Con1), UniProt Q9WMX2, V1196A); assay: as above; format: cell-based, Huh-7; conditions: SD, n = 3
# T20 construct: in transient replicon
# Experimental: as §1
# [21] = biological target: T21, 2a D168V (Hepatitis C virus JFH-1, UniProt Q99IB8, D1198V); assay: as above; format: cell-based, Huh-7; conditions: SD, n = 3
# T21 construct: in transient replicon
# Experimental: as §1
# [22] = biological target: T22, 1a Q80K (Hepatitis C virus (isolate H77), UniProt P27958, Q1106K); assay: as above; format: cell-based, Huh-7; conditions: SD, n = 3
# T22 construct: in transient replicon
# Experimental: as §1
# [23] = biological target: T23, 1a Y56H (Hepatitis C virus (isolate H77), UniProt P27958, Y1082H); assay: as above; format: cell-based, Huh-7; conditions: SD, n = 3
# T23 construct: in transient replicon
# Experimental: as §1
# [24] = biological target: T24, 1b R155K (Hepatitis C virus (isolate Con1), UniProt Q9WMX2, R1181K); assay: as above; format: cell-based, Huh-7; conditions: SD, n = 3
# T24 construct: in transient replicon
# Experimental: as §1
# [25] = biological target: T25, 1b A156V (Hepatitis C virus (isolate Con1), UniProt Q9WMX2, A1182V); assay: as above; format: cell-based, Huh-7; conditions: SD, n = 3
# T25 construct: in transient replicon
# Experimental: as §1
# [26] = biological target: T26, 1a V55I (Hepatitis C virus (isolate H77), UniProt P27958, V1081I); assay: as above; format: cell-based, Huh-7; conditions: SD, n = 3
# T26 construct: in transient replicon
# Experimental: as §1
# [27] = biological target: T27, 5a D168H (Hepatitis C virus SA13, UniProt O91936, D1195H); assay: as above; format: cell-based, Huh-7; conditions: SD, n = 3
# T27 construct: in genotype 2a JFH-1 chimeric transient replicon
# Experimental: as §1
# [28] = biological target: T28, GT1a H77 / 1a Wild type (Hepatitis C virus (isolate H77), UniProt P27958); assay: cell-based; parameters: species or system Huh-7; conditions: SD, n = 3; read-out: HCV stable replicons in 0% human plasma, Mean EC50 ± SD
# T28 construct: in subgenomic replicon
# From the text: (§2) Five of these nine cell lines have been described previously, including those transfected with genotypes 1a H77, 1b Con1, 3a, 4a, and 6a ([28]). […] The genotype 2b and 6e NS3 sequences were each synthetically constructed based on a consensus sequence derived from the alignment of 15 genotype 2b and 4 genotype 6e sequences, respectively. All replicon constructs were bicistronic subgenomic replicons similar to those described by Bartenschlager and coworkers, and the replicon cell lines were generated by introducing these constructs into cells of an Huh-7 human hepatoma-derived cell line ([50]). The inhibitory effect of the PIs on HCV replication in replicon cells was determined in Dulbecco's modified Eagle medium containing 5% fetal bovine serum with or without 40% human plasma (Bioreclamation, Westbury, NY). The EC50s were determined using nonlinear regression curve fitting as described previously ([33]).
# [29] = biological target: T29, GT1b Con1 / 1b Wild type (Hepatitis C virus (isolate Con1), UniProt Q9WMX2); assay: cell-based; parameters: species or system Huh-7; conditions: SD, n = 3; read-out: HCV stable replicons in 0% human plasma, Mean EC50 ± SD
# T29 construct: in subgenomic replicon
# From the text: as §2
# [30] = biological target: T28, GT1a H77 / 1a Wild type; assay: cell-based; parameters: species or system Huh-7; conditions: SD, n = 3
# Experimental: as §1
# [31] = biological target: T29, GT1b Con1 / 1b Wild type; assay: cell-based; parameters: species or system Huh-7; conditions: SD, n = 3
# Experimental: as §1
# [32] = test system: genotype 1b Con1 replicon cells; conditions: genotype 1b replicon cells; cited from earlier work
# [33] = test system: HCV genotype 1b replicon cells; assay: Drug-resistant colony selection in replicon cells; format: cell-based, Hepatitis C virus; conditions: 10× EC50, about 3 weeks
# From the text: (§3) . After approximately 3 weeks of treatment, the surviving replicon colonies in one plate for each selection condition were stained with crystal violet and counted, whereas approximately 20 to 30 colonies in a replicate plate or most of the colonies, if less than 20 colonies survived the selection, were picked and further expanded for genotyping. The expanded colonies were lysed in CellsDirect lysis buffer (Invitrogen, MA), and the NS3-coding region from each colony was amplified by reverse transcription-PCR and sequenced. For genotype 1a, 1b, 2a, and 5a colonies, the full-length NS3 sequence was determined, whereas for colonies of the chimeric replicon containing the N-terminal region of NS3 from genotype 2b, 3a, 4a, or 6a, the sequence encoding the NS3 N-terminal region was determined. We defined a substitution in a replicon to be an amino acid difference in a sequence from a posttreatment sample relative to the sequence of the corresponding untreated sample. For resistance selection studies, NS3 substitutions detected at the following amino acid positions associated with resistance to the HCV PI class in >2 colonies in each replicon selection are reported: 36, 43, 54, 55, 56, 80, 122, 155, 156, and 168. In addition, substitutions detected at other amino acid positions in the NS3 protease domain in >2 colonies in each replicon selection are also reported.
# (§4) […]. The drug-resistant colonies were fixed and stained with crystal violet, and the number of colonies was determined.
# [34] = test system: HCV genotype 1a replicon cells; assay: Drug-resistant colony selection in replicon cells; format: cell-based, Hepatitis C virus; conditions: 10× EC50, about 3 weeks
# From the text: as §3, §4
smiles,measurement,setting,value
"Cc1cnc(C(=O)N[C@H]2CCCCC/C=C\[C@@H]3C[C@@]3(C(=O)NS(=O)(=O)C3CC3)NC(=O)[C@@H]3C[C@@H](Oc4nc5ccccc5c5ccccc45)CN3C2=O)cn1 [Paritaprevir, paritaprevir (ABT-450)]",EC50,[1],135 ± 21 nM
same,EC50,[2],0.48 ± 0.05 nM
same,EC50,[3],0.07 ± 0.001 nM
same,EC50,[4],89 ± 15 nM
same,EC50,[5],17 ± 2 nM
same,EC50,[6],70 ± 9 nM
same,EC50,[7],0.81 ± 0.13 nM
same,EC50,[8],3 ± 0.3 nM
same,EC50,[9],20 ± 0.7 nM
same,EC50,[10],0.09 ± 0.01 nM
same,EC50,[11],3 ± 0.2 nM
same,EC50,[12],306 ± 34 nM
same,EC50,[13],24 ± 3 nM
same,EC50,[14],27 ± 12 nM
same,EC50,[15],0.54 ± 0.01 nM
same,EC50,[16],7.7 ± 1.7 nM
same,EC50,[17],37 ± 1.2 nM
same,EC50,[18],51 ± 8 nM
same,EC50,[19],29 ± 2.8 nM
same,EC50,[20],0.09 ± 0.03 nM
same,EC50,[21],228 ± 32 nM
same,EC50,[22],3.9 ± 0.3 nM
same,EC50,[23],4.1 ± 1.1 nM
same,EC50,[24],4.4 ± 0.1 nM
same,EC50,[25],2.3 ± 0.53 nM
same,EC50,[26],1.4 ± 0.14 nM
same,EC50,[27],184 ± 65 nM
same,EC50,[28],1 ± 0.33 nM
same,EC50,[29],0.21 ± 0.07 nM
same,EC50,[30],1.4 ± 0.4 nM
same,EC50,[31],0.11 ± 0.05 nM
"COC(=O)N[C@H](C(=O)N1CCC[C@H]1c1nc2cc([C@H]3CC[C@H](c4cc5nc([C@@H]6CCCN6C(=O)[C@@H](NC(=O)OC)[C@@H](C)OC)[nH]c5cc4F)N3c3cc(F)c(N4CCC(c5ccc(F)cc5)CC4)c(F)c3)c(F)cc2[nH]1)[C@@H](C)OC [Pibrentasvir, reference compound]",EC50,[32],0.0043 nM
same,Colony survival,[33],0%
same,Colony survival,[33]; listed as pibrentasvir,no genotype 1b replicon cells survived
same,Colony survival,[34],0.0065%
